Experimental findings from US20030083271A1, “Topoisomerase I selective cytotoxic sugar derivatives of indolopyrrolocarbazoles” (priority 2001, published 2003) are described below.

For one experiment, the system named is P388/CPT45 cells. The experiment in a line: Cytotoxicity in camptothecin-resistant P388/CPT45 cells relative to parental P388 (selectivity index R/S). The experiment is classed as cell-based, murine. The settings on record: IC50 P388/CPT45 cells divided by IC50 parental P388 cells. The source says: The present invention includes fluoro sugar and other sugar derivatives of indolopyrrolocarbazoles of formula (I), as defined above. […] Most importantly, the instant invention describes topo I active compounds, related to compounds disclosed in WO 98/07433 and co-pending U.S. application, Ser. No. 08/914566 (both herein incorporated by reference), which display a surprising and unexpected selectivity index when evaluated for cytotoxicity in certain cell lines which express normal levels of topo I required for cell proliferation, compared with cell lines that are deficient in or underexpress topo I. Said “selectivity index” (R/S) was generated by dividing the cytotoxic IC50 of a particular compound against a camptothecin-resistant murine leukemia cell line, P388/CPT45, by the IC50 generated when using the parent P388 cell line. […] A level of selectivity was judged to be advantageous and beneficial in, for example, modulating potential undesirable side effects and/or toxicity. The compounds of the present invention were selected from compounds generically disclosed in WO 98/07433 and co-pending U.S. patent application, Ser. No. 08/914566, on the basis of an unexpected and unpredictable selectivity index (see Table I and II). […] Simple changes in the substitution of the sugar portion or the indolopyrrolocarbazole portion of the present invention will change the selectivity. This change in selectivity is not predictable by one skilled in the art.
(§1) Similarly, P338 murine leukemia cells were maintained in RPMI 1640 supplemented with 20% fetal bovine serum and 10 μM 2-mercaptoethanol. A camptothecin resistant subline, P388/CPT45, was selected for resistance to camptothecin and is over 1000-fold resistant to this compound (Woessner, et al. Oncol. Res. 1992, 4, 481-488).
(§2) In vitro cytotoxicity was assessed in tissue culture cells by MTS (3-(4,5-dimethylthiazol-2-yl)-5-(3-carboxymethoxyphenyl)-2-(4-sulphenyl)-2H-tetrazolium, inner salt) assay (Riss and Moravec, Mol. Biol. Cell 1992, 3 (Suppl.), 184a). Cells were plated at 8,000 cell/well in 96 well microtiter plates and 24 hours later serial dilutions of the test compounds were made and added to the cells. The cells were incubated at 37° C. for 72 hours, at which time the tetrazolium dye, MTS at 333 μg/ml (final concentration), in combination with the electron coupling agent phenazine methosulfate at 25 μM (final concentration) was added. A dehydrogenase enzyme in live cells reduces the MTS to a form that absorbs light at 492 nm which can be quantitated spectrophotometrically. The greater the absorbance the greater the number of live cells. The results are expressed as an IC50, which is the drug concentration required to inhibit cell proliferation (i.e., absorbance at 492 nm) to 50% of that of untreated control cells.
The selectivity index (R/S) is defined as the ratio obtained by dividing the IC50 value obtained using P388/CPT45 cells by that obtained using parental P388 cells. The R/S ratios used to determine the relative topo I selectivity of selected compounds of this invention are shown below in Table I.

Experiment [1] has as its target T1, purified human topoisomerase I (Homo sapiens, UniProt P11387).
T1 construct: purchased Topogen
T1 sequence (P11387 1-765): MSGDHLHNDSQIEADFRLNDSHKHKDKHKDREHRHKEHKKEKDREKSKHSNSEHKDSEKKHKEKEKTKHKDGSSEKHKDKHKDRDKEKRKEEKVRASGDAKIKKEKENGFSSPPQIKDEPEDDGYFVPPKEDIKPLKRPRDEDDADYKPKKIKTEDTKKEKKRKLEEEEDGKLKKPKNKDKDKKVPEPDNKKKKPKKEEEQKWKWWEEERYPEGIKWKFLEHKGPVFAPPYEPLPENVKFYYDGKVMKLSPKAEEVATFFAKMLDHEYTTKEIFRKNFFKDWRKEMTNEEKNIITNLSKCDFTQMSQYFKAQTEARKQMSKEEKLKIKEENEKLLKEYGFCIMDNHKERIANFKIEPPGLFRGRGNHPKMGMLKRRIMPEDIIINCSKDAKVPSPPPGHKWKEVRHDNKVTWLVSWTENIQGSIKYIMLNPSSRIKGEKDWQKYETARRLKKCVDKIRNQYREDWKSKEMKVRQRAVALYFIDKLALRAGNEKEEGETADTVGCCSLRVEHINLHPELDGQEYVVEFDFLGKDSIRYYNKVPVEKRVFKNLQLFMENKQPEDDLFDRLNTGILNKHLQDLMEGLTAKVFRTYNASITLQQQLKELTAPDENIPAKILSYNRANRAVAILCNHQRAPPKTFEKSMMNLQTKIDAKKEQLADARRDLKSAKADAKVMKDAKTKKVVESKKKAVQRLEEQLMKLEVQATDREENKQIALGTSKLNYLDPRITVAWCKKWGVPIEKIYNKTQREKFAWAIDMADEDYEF
Kind of experiment: Topoisomerase I-mediated single strand DNA break induction (in vitro). In kind it is biochemical. The settings on record: median effect concentration for inducing single-strand breaks in the DNA substrate; read-out: Topo I EC50. How it is done:
Topoisomerase I activity was measured as described below. The procedure for assaying compound-induced, topoisomerase I-mediated single strand breaks in DNA was essentially that described by Hsiang, et al., (J. Biol. Chem. 1985, 260, 14873-14878). Samples dissolved in 100% DMSO as either […] or 10 mg/ml solutions, unless otherwise stated, were diluted in Tris-EDTA buffer. Marine bacteriophage PM2 DNA (Boehringer Mannheim) was also diluted in Tris-EDTA buffer to a concentration of 0.02 μg/μl. Different dilutions of the compound being evaluated were mixed with diluted DNA and this mixture was added to […] (one unit of enzyme activity is defined as the amount capable of relaxing 100 ng of supercoiled DNA in approximately 30 minutes at 37° C.) aliquots of purified human topoisomerase I (Topogen) in 2X reaction buffer to start the reaction. The compound-DNA-enzyme mixture was incubated for 30 minutes at 37° C. before stopping the reaction with warm stop buffer containing sodium dodecyl sulfate and proteinase K (Sigma). These mixtures were allowed to incubate at 37° C. for another 10 minutes, at which time the mixtures were removed from the waterbath and extracted with a 24:1 mixture of chloroform/isoamyl alcohol. Following centrifugation, aliquots of the aqueous phases were placed in wells of a 0.9% agarose (SeaKem) gel in Tris-borate buffer containing 0.5 μg/ml of ethidium bromide and subjected to electrophoresis for 15 hours to separate the different topological isomers and nicked and broken DNAs. After destaining the gel in water, the ethidium bromide stained DNA reaction products were visualized by exposing the gel to UV irradiation. Negatives of the photographs of the irradiated gels were scanned with a densitometer and areas under the peaks were calculated in order to obtain percent single strand DNA break formation for each sample. A median effective concentration (EC50) was obtained for each compound by interpolation between points of the resulting dose-effect curve which defines the potency of the compound for its effect in inducing topoisomerase I-mediated single strand breaks in DNA. The topoisomerase I activities for certain compounds of the present invention are shown below in Table I.

The test system of experiment [2] is P388 murine leukemia cells. The experiment in a line: In vitro cell-based cytotoxicity, parental P388 cells. The settings on record: Mus musculus, 72 h, median cytotoxic concentration, 3 days continuous exposure. The procedure: The proliferation inhibition activity against the murine P388 cell line was measured as follows. Evaluation of a soluble tetrazolium/formazan assay for cell growth and drug sensitivity in culture, using human and other tumor cell lines, was done according to the procedure described in Cancer Res. 1988, 48, 4827-4833. Cells were plated at 4000 cells/well in 96 well microtiter plates and 24 h later drugs were added and serially diluted. The cells were incubated at 37° C. for 72 h, at which time a tetrazolium dye, XTT, containing phenazine methosulfate was added. A dehydrogenase enzyme in live cells reduced the XTT to a form that absorbs light at 450 nm, which could be quantitated spectrophotometrically. The greater the absorbance the greater the number of live cells. The results are expressed as an IC50, which is the drug concentration required to inhibit cell proliferation (i.e., absorbance at 450 nm) to 50% of that of untreated control cells.
as §1, §2
The cytotoxic activity for certain compounds of the present invention, in both parental P388 and the camptothecin-resistant P388/CPT45 cell lines are shown below in Table I.

Turning to `O=C1NC(=O)c2c1c1c3cc(F)c(F)cc3sc1c1c2c2cc(F)c(F)cc2n1[C@@H]1O[C@H](CF)[C@@H](O)[C@H](O)[C@H]1O` [Example 8, 13-[6-Dideoxy-6-fluoro-β-D-glucopyranosyl]-2,3,9,10-tetrafluoro-5H,13H-benzo[b]thienyl[2,3-a]pyrrolo[3,4-c]carbazole-5,7(6H)-dione], the “Selectivity Index R/S” value in the experiment with P388/CPT45 cells came to 119.1. Also, in experiment [1], the EC50 worked out at 120 nM. In addition, the IC50 in experiment [2] came out at 52 nM.
For `[N-]=[N+]=N[C@H]1[C@H](O)[C@@H](O)[C@H](n2c3ccc(F)cc3c3c4c(c5c6cc(F)ccc6[nH]c5c32)C(=O)NC4=O)O[C@@H]1CO` [Example 10] the same measures were 121.3, 20 nM and 68 nM.
The corresponding values for `NC[C@H]1O[C@@H](n2c3cc(F)c(F)cc3c3c4c(c5c6cc(F)c(F)cc6sc5c32)C(=O)NC4=O)[C@H](O)[C@@H](O)[C@@H]1F` [Example 12, 12-[6-Amino-4,6-dideoxy-4-fluoro-β-D-glucopyranosyl]-2,3,9,10-tetrafluoro-5H,13H-benzo[b]thienyl[2,3-a]pyrrolo[3,4-c]carbazole-5,7(6H)-dione] are 131.5, 20 nM and 2 nM.
For `O=C1NC(=O)c2c1c1c3cc(F)ccc3sc1c1c2c2cc(F)ccc2n1[C@@H]1O[C@H](CN2CCOCC2)[C@@H](O)[C@H](O)[C@H]1O` [Example 13] the same measures were 140.0, 160 nM and 100 nM.
As for `O=C1NC(=O)c2c1c1c3cc(F)c(F)cc3[nH]c1c1c2c2cc(F)c(F)cc2n1[C@@H]1O[C@H](CO)C(F)(F)[C@H](O)[C@H]1O` [Example 14], in the experiment with P388/CPT45 cells, the “Selectivity Index R/S” value was 140.3. In addition, in experiment [1], the EC50 was 30 nM. The half-inhibitory concentration (IC50) in experiment [2] stood at 6 nM.
For `O=C1NC(=O)c2c1c1c3cc(F)ccc3[nH]c1c1c2c2cc(F)ccc2n1[C@@H]1O[C@H](CF)C[C@H](O)[C@H]1O` [Example 15] the same measures were >149.7, 30 nM and 5 nM.
Turning to `O=C1NC(=O)c2c1c1c3cc(F)c(F)cc3[nH]c1c1c2c2cc(F)c(F)cc2n1[C@@H]1O[C@H](CF)C[C@@H](F)[C@H]1O` [Example 17, 12-[3,6-Difluoro-3,4,6-trideoxy-β-D-allopyranosyl]-2,3,9,10-tetrafluoro-12,13-dihydro-5H-indolo[2,3-a]pyrrolo[3,4-c]carbazole-5,7(6H)-dione], the “Selectivity Index R/S” value with P388/CPT45 cells came out at 179.2. Also, the EC50 in experiment [1] was determined as 450 nM. In addition, the IC50 in experiment [2] came out at 41 nM.
For `[N-]=[N+]=N[C@H]1[C@@H](O)[C@@H](O)[C@H](n2c3ccc(F)cc3c3c4c(c5c6cc(F)ccc6[nH]c5c32)C(=O)NC4=O)O[C@@H]1CF` [Example 19] the same measures were >195.2, 60 nM and < 3 nM.
For `O=C1NC(=O)c2c1c1c3cc(F)ccc3[nH]c1c1c2c2cc(F)ccc2n1[C@@H]1O[C@H](CO)C[C@@H](O)[C@H]1O` [Example 20, 12-[4-Deoxy-β-D-allopyranosyl)-3,9-difluoro-12,13-dihydro-5H-indolo [2,3-a]pyrrolo[3,4-c]carbazole-5,7(6H)-dione] the same measures were 201.2, 20 nM and 2 nM.
The corresponding values for `O=C1NC(=O)c2c1c1c3cc(F)c(F)cc3[nH]c1c1c2c2cc(F)c(F)cc2n1[C@@H]1O[C@H](CO)C[C@H](O)[C@H]1O` [Example 21] are 207.7, 70 nM and 5 nM.
Take `O=C1NC(=O)c2c1c1c3cc(F)c(F)cc3[nH]c1c1c2c2cc(F)c(F)cc2n1[C@@H]1O[C@H](CF)[C@@H](F)[C@H](O)[C@H]1O` [Example 22, 12-[4,6-Difluoro-4,6-dideoxy-β-D-glucopyranosyl]-2,3,9,10-tetrafluoro-12,13-dihydro-5H-indolo[2,3-a]pyrrolo[3,4-c]carbazole-5,7(6H)-dione]: the “Selectivity Index R/S” value in the experiment with P388/CPT45 cells was determined as 287.7. For the same molecule, in experiment [1], the EC50 was 80 nM. Besides, the IC50 in experiment [2] is 14 nM.
For `O=C1NC(=O)c2c1c1c3cc(F)ccc3[nH]c1c1c2c2cc(F)ccc2n1[C@@H]1O[C@H](CO)C(F)(F)[C@H](O)[C@H]1O` [Example 25, 12-[4,4-Difluoro-4-deoxy-β-D-glucopyranosyl]-3,9-difluoro-12,13-dihydro-5H-indolo[2,3-a]pyrrolo[3,4-c]carbazole-5,7(6H)-dione] the same measures were 381.5, 10 nM and 3 nM.
